# Test results as given in patent US8367087B2, “Soil amendment compositions and methods for using the same” (priority 1998, dated 2013).
# Tested on: J2 larvae of the Root Knot Nematode (Meloidogyne incognita)
# Experiment: Touch response of J2 larvae after 24 hours exposure to predisposing agents
# Format: in vivo
# Experimental: The merits of alternative predisposing agents were examined by subjecting J2 larvae of the Root Knot Nematode (Meloidogyne incognita) to solutions of lignosulfonate and gallic acid. J2 larvae were exposed 24 hours to various concentrations of the materials in shallow 50 ml beakers. Following exposure, nematodes were inspected for activity level using touch response: […]
compound,measurement,setting,value
"O=C(O)c1cc(O)c(O)c(O)c1 [Gal Ac, Gallic Acid]",Control %,5 ppm,30.7%
same,"active, responding nematodes per total examined (viable/total), Mean",5 ppm,312/450
same,"active, responding nematodes per total examined (viable/total), Replication 1",5 ppm,305/462
same,"active, responding nematodes per total examined (viable/total), Replication 2",5 ppm,316/440
same,"active, responding nematodes per total examined (viable/total), Replication 3",5 ppm,326/447
same,"active, responding nematodes per total examined (viable/total), Replication 4",5 ppm,302/450
same,"active, responding nematodes per total examined (viable/total), Total",5 ppm,1249/1799
same,Control %,25 ppm,47.7%
same,"active, responding nematodes per total examined (viable/total), Mean",25 ppm,239/457
same,"active, responding nematodes per total examined (viable/total), Replication 1",25 ppm,250/458
same,"active, responding nematodes per total examined (viable/total), Replication 2",25 ppm,248/449
same,"active, responding nematodes per total examined (viable/total), Replication 3",25 ppm,232/459
same,"active, responding nematodes per total examined (viable/total), Replication 4",25 ppm,225/462
same,"active, responding nematodes per total examined (viable/total), Total",25 ppm,955/1828
same,Control %,100 ppm,60.9%
same,"active, responding nematodes per total examined (viable/total), Mean",100 ppm,176/450
same,"active, responding nematodes per total examined (viable/total), Replication 1",100 ppm,193/450
same,"active, responding nematodes per total examined (viable/total), Replication 2",100 ppm,185/448
same,"active, responding nematodes per total examined (viable/total), Replication 3",100 ppm,176/436
same,"active, responding nematodes per total examined (viable/total), Replication 4",100 ppm,150/464
same,"active, responding nematodes per total examined (viable/total), Total",100 ppm,704/1798
same,Control %,1000 ppm,92.7%
same,"active, responding nematodes per total examined (viable/total), Mean",1000 ppm,33/452
same,"active, responding nematodes per total examined (viable/total), Replication 1",1000 ppm,25/449
same,"active, responding nematodes per total examined (viable/total), Replication 2",1000 ppm,39/444
same,"active, responding nematodes per total examined (viable/total), Replication 3",1000 ppm,40/454
same,"active, responding nematodes per total examined (viable/total), Replication 4",1000 ppm,27/460
same,"active, responding nematodes per total examined (viable/total), Total",1000 ppm,131/1807
